Test results taken from patent US20240315989A1 (priority 2021, published 2024).
Like-named read-outs stand apart in the source and are kept apart here.

Legend:
SARS-CoV-2 [1] = conditions: A549-ACE2; cited from earlier work
σ1 site [2] = target: T1, σ1 site (Homo sapiens, UniProt Q99720); conditions: read-out: Affinity for σ1 Site (Ki or KD values); cited from earlier work
σ1 site [3] = target: T1, σ1 site; conditions: cited from earlier work
severe COVID-19 = assay: AP-HP observational multicenter study: FIASMA medication use and intubation or death in severe COVID-19; format: in vivo, human; conditions: for Number of events/Number of patients N/N: each FIASMA class and molecule at baseline, severe COVID-19 (N = 2,846); for Number of events/Number of patients (%): each FIASMA class and molecule; for Univariate Cox regression in 1:2 ratio matched analytic samples HR: vs matched control groups
Procedure: COVID-19 was ascertained by a positive reverse-transcriptase-polymerase-chain-reaction (RT-PCR) test on nasopharyngeal or oropharyngeal swab specimens. Severe COVID-19 was defined as having at least one of the following criteria at hospital admission: respiratory rate >24 breaths/min or <12 breaths/min, resting peripheral capillary oxygen saturation in ambient air <90%, temperature >40° C., systolic blood pressure <100 mm Hg, or high lactate levels >2 mmol/L.^22
AP-HP Health Data Warehouse (‘Entrepôt de Données de Santé (EDS)’) contains all available clinical data on all inpatient visits for COVID-19 to 36 Greater Paris university hospitals. The data included patient demographic characteristics, vital signs, laboratory tests, and RT-PCR test results, medication administration data during the hospitalization for COVID-19, current diagnoses, discharge disposition, ventilator use data, and death certificates.
We obtained the following data for each patient at the time of the hospitalization: sex; age, which was categorized into four classes based on the OpenSAFELY study results^23 (i.e., 18-50, 51-70, 71-80, and 81+); hospital, which was categorized into four classes following the administrative clustering of AP-HP hospitals in Paris and its suburbs based on their geographical location (i.e., AP-HP Centre—Paris University, Henri Mondor University Hospitals and at home hospitalization; AP-HP Nord and Hôpitaux Universitaires Paris Seine-Saint-Denis; AP-HP Paris Saclay University; and AP-HP Sorbonne University); obesity, which was defined as having a body mass index higher than 30 kg/m^2 or an International Statistical Classification of Diseases and Related Health Problems (ICD-10) diagnosis code for obesity (E66.0, E66.1, E66.2, E66.8, and E66.9); self-reported current smoking status; and any medication prescribed according to compassionate use or as part of a clinical trial (e.g., hydroxychloroquine, azithromycin, remdesivir, tocilizumab, sarilumab, or dexamethasone). To take into account possible confounding by indication bias for FIASMA medications, we recorded whether patients had any current diagnosis, based on ICD-10 diagnosis codes recorded during the visit, of neoplasms and diseases of the blood (C00-D89); mental disorders (F01-F99); diseases of the nervous system (G00-G99); cardiovascular disorders (I00-I99); respiratory disorders (J00-J99); digestive disorders (K00-K95); dermatological disorders (L00-L99); diseases of the musculoskeletal system (M00-M99); diseases of the genitourinary system (N00-N99); endocrine disorders (E00-E89); and eye-ear-nose-throat disorders (H00-H95).
FIASMA medication use was defined as receiving at least one FIASMA medication within the first 24 hours of hospital admission. To minimize potential confounding effects of late prescription of FIASMA medications, patients who initiated an FIASMA medication more than 24 hours after hospital admission were excluded from the analyses. Patients who received at study baseline an antipsychotic or a benzodiazepine while being hospitalized in an intensive care unit, possibly as an aid to oral intubation, were also excluded.
Study baseline was defined as the date of hospital admission for COVID-19. The primary end point was the occurrence of intubation and/or death. For patients who died after intubation, the timing of the primary end point was defined as the time of intubation.
We calculated frequencies of all baseline characteristics described above in patients receiving or not receiving an FIASMA medication and compared them using standardized mean differences (SMD). SMD are useful to evaluate between-group differences in baseline characteristic variables independently of their unit of measurement (i.e., for both continuous and categorical variables^26-28). We considered SMD greater than 0.1 as reflecting significant differences, a threshold recommended for declaring imbalance.^27

pp-VSV-SARS-CoV-2 spike = conditions: cited from earlier work
SARS-CoV-2 infection = assay: Retrospective cohort (BJC Healthcare): antidepressant exposure and ED or hospital encounter within 30 days; format: in vivo, human; conditions: for ED or hospital encounter within 30 days, %: share of exposed outpatients with an encounter after a positive SARS-CoV-2 test; for Unadjusted Odds Ratio, ED or hospital encounter within 30 days / Adjusted Odds Ratio, ED or hospital encounter within 30 days: vs No Antidepressant (Ref); for Unadjusted Odds Ratio, ED or hospital encounter within 30 days: logistic regression; for Adjusted Odds Ratio, ED or hospital encounter within 30 days: multivariable logistic regression, complete cases
SARS-CoV-2 [4] = conditions: cited from earlier work
COVID-19 = conditions: p<0.05; cited from earlier work
SARS-CoV-2 [5] = conditions: cited from earlier work; remark: listed apart in the source
[6] = one-compartment model; cited from earlier work
sigma-1 receptors = sigma-1 receptors (Rattus norvegicus, UniProt Q9R0C9); conditions: cited from earlier work
Chain of sigma-1 receptors (Q9R0C9 whole entry): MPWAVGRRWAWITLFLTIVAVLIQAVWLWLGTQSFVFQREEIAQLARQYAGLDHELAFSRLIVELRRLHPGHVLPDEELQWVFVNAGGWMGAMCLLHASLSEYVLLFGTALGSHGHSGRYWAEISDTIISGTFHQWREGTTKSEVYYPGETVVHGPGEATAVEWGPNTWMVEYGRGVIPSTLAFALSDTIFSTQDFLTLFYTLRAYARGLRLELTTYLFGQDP

[7] = vs no FIASMA medication, Table 33
[8] = paracetamol group matched to FIASMA respiratory system medication, Table 34

T1 sequence (Q99720 whole entry): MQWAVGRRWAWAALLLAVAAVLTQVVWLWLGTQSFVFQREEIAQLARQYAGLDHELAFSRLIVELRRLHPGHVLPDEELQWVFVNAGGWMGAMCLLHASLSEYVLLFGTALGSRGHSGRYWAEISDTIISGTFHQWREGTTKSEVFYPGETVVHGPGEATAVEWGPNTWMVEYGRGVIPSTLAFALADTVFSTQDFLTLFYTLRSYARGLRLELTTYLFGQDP

COc1ccc2c(c1)[C@]13CCCC[C@@H]1[C@H](C2)N(C)CC3 [Dextromethorphan]
SARS-CoV-2 viral replication (SARS-CoV-2 [1]): increase viral replication
Ki (σ1 site [2]): < 500 nM
Function on σ1 Site (σ1 site [3]): Agonist

OCCOCCN1CCN(C(c2ccccc2)c2ccc(Cl)cc2)CC1 (stereo not drawn) [Hydroxyzine]
Number of events/Number of patients N/N (severe COVID-19; Table 33): 11/31

CN(C)C(=O)C(CCN1CCC(O)(c2ccc(Cl)cc2)CC1)(c1ccccc1)c1ccccc1 [Loperamide]
Number of events/Number of patients N/N (severe COVID-19; Table 33): 2/9
Number of events/Number of patients (%) (severe COVID-19; Table 33): (22.2) %
Univariate Cox regression in 1:2 ratio matched analytic samples HR (severe COVID-19; Table 33): 0.24
Analysis weighted by inverse-probability-weighting weights HR (severe COVID-19; [7]): 0.15
Crude Cox regression analysis HR (severe COVID-19; [7]): 0.39
Multivariable Cox regression analysis HR (severe COVID-19; [7]): 0.25

CC(=O)Nc1ccc(O)cc1 [Paracetamol]
Number of events/Number of patients in the matched groups (%) (severe COVID-19; [8]): (21.4) %
Number of events/Number of patients in the matched groups N/N (severe COVID-19; [8]): 3/14
Number of events/Number of patients in the matched groups (%) (severe COVID-19; paracetamol group matched to other FIASMA cardiovascular system medications, Table 34): (48.5) %

CN(C)CCC=C1c2ccccc2CCc2ccccc21 [amitriptyline]
Infection with pp-VSV-SARS-CoV-2 spike (pp-VSV-SARS-CoV-2 spike; freshly isolated nasal epithelial cells of volunteers treated with a low dose): prevented infection
ED or hospital encounter within 30 days, % (SARS-CoV-2 infection): 23.6%
Unadjusted Odds Ratio, ED or hospital encounter within 30 days (SARS-CoV-2 infection): 2.90
Adjusted Odds Ratio, ED or hospital encounter within 30 days (SARS-CoV-2 infection): 1.09
Infection with SARS-CoV-2 (SARS-CoV-2 [4]; human Caco-2 cells): prevented infection

CN(C)CCC[C@@]1(c2ccc(F)cc2)OCc2cc(C#N)ccc21 [escitalopram]
Risk of intubation or death because of COVID-19 (COVID-19): lower risk of intubation or death
Infection with pp-VSV-SARS-CoV-2 spike (pp-VSV-SARS-CoV-2 spike; Vero cells): prevent infection
Inhibiting SARS-CoV-2 replication at a concentration of (SARS-CoV-2 [5]): at a concentration of 0.8 μg/ml
ED or hospital encounter within 30 days, % (SARS-CoV-2 infection): 16.2%

CNCCC(Oc1ccc(C(F)(F)F)cc1)c1ccccc1 (stereo not drawn) [fluoxetine]
Risk of intubation or death because of COVID-19 (COVID-19): lower risk of intubation or death
Infection with pp-VSV-SARS-CoV-2 spike (pp-VSV-SARS-CoV-2 spike; Vero cells): prevent infection
volume of distribution [V/F] [6]: 690 L
Function on σ1 Site (σ1 site [3]): Agonist
ED or hospital encounter within 30 days, % (SARS-CoV-2 infection): 16.2%
Entry and propagation of SARS-CoV-2 (SARS-CoV-2 [4]; Vero-E6 cell lines): efficiently inhibit entry and propagation

Fc1ccc([C@@H]2CCNC[C@H]2COc2ccc3c(c2)OCO3)cc1 [paroxetine]
Ki (sigma-1 receptors): 2040 nM
ED or hospital encounter within 30 days, % (SARS-CoV-2 infection): 15.1%
Unadjusted Odds Ratio, ED or hospital encounter within 30 days (SARS-CoV-2 infection): 1.67
Adjusted Odds Ratio, ED or hospital encounter within 30 days (SARS-CoV-2 infection): 0.64
Univariate Cox regression in 1:2 ratio matched analytic samples HR (severe COVID-19; Table 33): 0.54
Analysis weighted by inverse-probability-weighting weights HR (severe COVID-19; [7]): 0.57
Crude Cox regression analysis HR (severe COVID-19; [7]): 0.69

CN[C@H]1CC[C@@H](c2ccc(Cl)c(Cl)c2)c2ccccc21 [sertraline]
Function on σ1 Site (σ1 site [3]): Agonist
ED or hospital encounter within 30 days, % (SARS-CoV-2 infection): 17.9%
Number of events/Number of patients N/N (severe COVID-19; Table 33): 7/21
Number of events/Number of patients (%) (severe COVID-19; Table 33): (33.3) %
Analysis weighted by inverse-probability-weighting weights adjusted for unbalanced covariates HR (severe COVID-19; [7]): 0.82
Crude Cox regression analysis HR (severe COVID-19; [7]): 0.58
Multivariable Cox regression analysis HR (severe COVID-19; [7]): 0.67
